Results: PMC5424180, “The molecular mechanism of the type IVa pilus motors” (Nature Communications, 2017)
One block for each compound: values may come before it.

Columns and labels:
PilB (PilBGm) [1] = target: T1, PilB (PilBGm) (Geobacter metallireducens, UniProt Q39VU7); assay: X-ray crystallography, […] Å (anisotropic); settings: Mg2+; pH 7.6; 20 °C; no exogenous nucleotide, ADP co-purified from E. coli; four closed ATP binding sites
T1 construct: hexamer; residues 181-568 (N2D + CTD) built; primer-encoded start MQASRL, end TVADD

[2] = target: PilB from Geobacter metallireducens (Geobacter metallireducens); assay: crystal structure; PilB:AMP-PNP; non-saturating AMP-PNP (50 μM final to 120 μM PilB); 11% PEG3350, 0.1 M magnesium formate, 0.1 M Tris pH 7.0, vapour diffusion at 20 °C; six chains in the asymmetric unit
[3] = target: PilB from Geobacter metallireducens (Geobacter metallireducens); assay: crystal structure; PilB:ADP; no exogenous nucleotide added; 13% PEG3350, 0.1 M magnesium formate, 0.1 M Tris pH 7.6, vapour diffusion at 20 °C; three chains in the asymmetric unit, hexamer from crystal packing
PilB (PilBGm) [4] = target: T1, PilB (PilBGm); assay: X-ray crystallography, […] Å; settings: Mg2+; pH 7.0; 20 °C; non-saturating AMP-PNP; ATP binding sites (closed full occupancy, open ~70%)

T1 sequence (Q39VU7 entry or part of it): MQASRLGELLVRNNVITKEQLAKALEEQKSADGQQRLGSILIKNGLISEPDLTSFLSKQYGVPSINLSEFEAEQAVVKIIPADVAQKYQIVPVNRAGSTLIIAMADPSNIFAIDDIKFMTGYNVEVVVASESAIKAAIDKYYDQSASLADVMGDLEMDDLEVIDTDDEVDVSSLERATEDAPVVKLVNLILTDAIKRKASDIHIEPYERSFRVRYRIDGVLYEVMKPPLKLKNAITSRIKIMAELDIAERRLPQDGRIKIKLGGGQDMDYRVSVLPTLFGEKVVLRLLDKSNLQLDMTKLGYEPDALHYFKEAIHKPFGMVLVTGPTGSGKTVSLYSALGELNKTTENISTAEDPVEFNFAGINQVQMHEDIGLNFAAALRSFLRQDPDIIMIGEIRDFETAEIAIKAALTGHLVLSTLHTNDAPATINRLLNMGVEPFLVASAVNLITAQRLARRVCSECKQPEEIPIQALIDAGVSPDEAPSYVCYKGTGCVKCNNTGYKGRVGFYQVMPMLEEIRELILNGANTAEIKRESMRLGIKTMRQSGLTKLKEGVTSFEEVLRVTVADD

Compound: Nc1ncnc2c1ncn2[C@@H]1O[C@H](COP(=O)(O)OP(=O)(O)O)[C@@H](O)[C@H]1O [ADP]
X-ray crystallography, 3.4 Å (anisotropic) (PilB (PilBGm) [1]): In four sites, ADP and magnesium best fit the electron density

stoichiometry N [2]: 6 | stoichiometry N [3]: 6
Compound: PilB from Geobacter metallireducens (enzyme)

Compound: Nc1ncnc2c1ncn2[C@@H]1O[C@H](COP(=O)(O)OP(=O)(O)NP(=O)(O)O)[C@@H](O)[C@H]1O [AMP-PNP]
X-ray crystallography, 2.3 Å (PilB (PilBGm) [4]): Between two packing units, AMP-PNP, magnesium, and several highly ordered waters best fit
